# Test results: US11945833B2, “Prodrugs of L-BHDU and methods of treating viral infections” (priority 2021, dated 2024)
# “Also recorded” adds a separate entry of the source. Where two headings read alike, the source gives them in different places.
# Columns and labels:
# VZV-ORF57-Luc [1] = assay: Antiviral activity in ARPE-19 cells infected with VZV-ORF57-Luc; format: cell-based, Varicella-zoster virus; details: for in vitro anti-VZV activity (in words): VZV-ORF57-Luc
# Method: To enhance the antiviral activity octadecyloxyethyl-L-BHDU (ODE-L-BHDU, 5) and hexadecyloxypropyl-L-BHDU (HDP-L-BHDU, 6), POM-L-BHDU (8), and POC-L-BDHU (14) (FIGS. 1-3, Schemes 1-3) prodrugs were synthesized with modifications to increase bioavailability and cell penetration. Their antiviral activity was evaluated in ARPE-19 cells infected with VZV-ORF57-Luc, a new reporter virus.
# VZV-ORF57-Luc [2] = assay: NuSkin mouse model of VZV replication (adult human skin xenografts), bioluminescence imaging; format: in vivo, Athymic Nude mice; details: for in vivo antiviral activity against VZV (in words): s.c. once daily days 3-9 post-infection, equimolar to cidofovir 10 mg/kg; for dose effective in vivo: subcutaneous (s.c.); for activity compared with cidofovir in repeated in vivo studies: subcutaneous (s.c.) as well as oral route, cidofovir 10 mg/Kg
# Method: Mice were treated with vehicle or drugs, and virus yield was measured by bioluminescence imaging. VZV growth rate for individual mice (symbols) and the average for the group (bars) are shown in (A) and (B). […] The overall significance on day 10 post-inoculation (DPI 10) is p=0.0352 (one-way ANOVA). ** p<0.01 for OED-L-BHDU & POM-L-BHDU and (student's t test with Welch's correction). Cidofovir group (i.p.) has an average fold change of 2-5 on DPI 10. (B).
# VZV [3] = details: cited from earlier work; for in vivo reduction in VZV growth compared to ACV and VACV: previous in vivo studies
# VZV [4] = assay: Topical treatment of VZV in human skin explant model; details: formulated in cocoa butter
# Source text: (§1) Each compound was formulated in Cocoa Butter and applied topically. POM was formulated in equimolar concentrations to 0.1% L-BHDU.
# [5] = target: T1, dihydropyridine dehydrogenase (Homo sapiens, UniProt Q12882); details: cited from earlier work
# T1 sequence (Q12882 4-1025): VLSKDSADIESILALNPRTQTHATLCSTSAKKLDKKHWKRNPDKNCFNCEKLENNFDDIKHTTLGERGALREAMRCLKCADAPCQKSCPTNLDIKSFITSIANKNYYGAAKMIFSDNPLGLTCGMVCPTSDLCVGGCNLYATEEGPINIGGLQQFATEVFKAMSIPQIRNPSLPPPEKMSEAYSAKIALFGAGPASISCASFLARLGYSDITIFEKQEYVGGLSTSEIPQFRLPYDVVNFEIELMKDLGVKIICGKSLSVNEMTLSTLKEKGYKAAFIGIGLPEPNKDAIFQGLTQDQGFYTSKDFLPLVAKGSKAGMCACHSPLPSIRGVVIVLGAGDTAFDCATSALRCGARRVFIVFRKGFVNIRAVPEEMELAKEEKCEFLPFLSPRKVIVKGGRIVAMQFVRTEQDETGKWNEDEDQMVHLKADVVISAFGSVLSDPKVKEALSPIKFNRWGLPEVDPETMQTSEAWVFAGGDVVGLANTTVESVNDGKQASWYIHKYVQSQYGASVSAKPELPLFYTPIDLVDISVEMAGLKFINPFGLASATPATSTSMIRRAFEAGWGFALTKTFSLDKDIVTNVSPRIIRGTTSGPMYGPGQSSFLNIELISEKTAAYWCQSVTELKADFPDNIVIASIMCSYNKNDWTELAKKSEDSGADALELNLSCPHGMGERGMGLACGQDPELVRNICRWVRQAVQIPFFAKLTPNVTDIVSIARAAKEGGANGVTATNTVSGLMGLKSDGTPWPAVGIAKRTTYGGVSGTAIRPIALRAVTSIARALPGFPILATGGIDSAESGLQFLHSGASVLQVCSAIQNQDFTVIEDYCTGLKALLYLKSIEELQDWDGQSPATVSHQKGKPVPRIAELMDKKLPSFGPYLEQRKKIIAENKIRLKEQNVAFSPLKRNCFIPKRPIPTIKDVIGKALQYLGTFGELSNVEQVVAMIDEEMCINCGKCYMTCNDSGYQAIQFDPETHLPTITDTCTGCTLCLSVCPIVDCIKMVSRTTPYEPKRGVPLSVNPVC
# HSV-2 = assay: Anti-HSV-2 activity in Vero cells, bioluminescence imaging; format: cell-based, herpes simplex virus
# Method: HSV-2 yield was determined by bioluminescence imaging. Each point represents the mean±standard deviation of a triplicate sample
# Furthermore, antiviral activity of these analogs was tested in vitro against the HSV-2 (genital herpes) in Vero cells using acyclovir as a standard drug reference. […] All other analogs, including L-BDHU, were found ineffective against the HSV-2 (FIG. 11, Table 3). After these findings, it was determined that POM-L-BHDU […] has potential against the HSV-1 & HSV-2. Further in vivo evaluation of POM prodrug of the L-BDHU will confirm activity.
# [6] = tested on: human fibroblast (HFFs) cells; format: cell-based
# Method: The cellular toxicity of synthesized analogs was determined on low passage of human fibroblast (HFFs) cells by performing 72 h of neutral red dye uptake and MTT cell proliferation assays.
# [7] = cited from earlier work
# HSV1 = assay: Topical treatment of HSV1 in human skin explant model; details: formulated in cocoa butter
# Source text: as §1
# VZV-BAC-Luc = details: previous assay, HFFs infected with VZV-BAC-Luc; read-out: EC50 against VZV in HFFs; cited from earlier work
# HSV-1 = assay: Anti-HSV-1 activity in Vero cells; format: cell-based, herpes simplex virus
# Method: Additionally, all synthesized compounds were also tested in vitro against herpes simplex viruses (HSV-1, oral herpes) in Vero cells, FIG. 8.
# [8] = tested on: human foreskin fibroblast (HFFS) cells; details: cited from earlier work
# [9] = Tolerability and weight change in NuSkin mice; details: male and female mice
# [10] = tested on: cell-associated VZV-ORF57-Luc; assay: Antiviral screening against cell-associated VZV-ORF57-Luc in ARPE-19 cells; format: cell-based, Varicella-zoster virus
# Method: Cidofovir and acyclovir are positive controls. Each symbol represents the average of 6 replicate wells; the line is the best fit curve (error bars omitted for clarity).
# These studies were performed in the same manner as the efficacy studies described above, except cell-associated VZV-ORF57-Luc, VZV-ORF57-ΔTK, VZV-ORF57-ΔTS and VZV-ORF57-ΔTKTS were used to infect ARPE-19 cells. As before, CDV and ACV were used as positive controls.
# [11] = read-out: EC50 against VZV-ORF57-Luc
structure (smiles),measurement,setting,value
O=c1[nH]c(=O)n([C@@H]2CO[C@H](CO)O2)cc1/C=C/Br [L-BHDU],EC50,VZV-ORF57-Luc [1]; read-out: EC50 against VZV in ARPE-19s,22 nM
same,EC50,VZV-ORF57-Luc [1]; [11],22 nM
same,in vivo antiviral activity against VZV (in words),VZV-ORF57-Luc [2],ineffective
same,dose effective in SCID-Hu mouse model of VZV replication,VZV [3]; human fetal skin,15 mg/kg
same,in vivo reduction in VZV growth compared to ACV and VACV,VZV [3],significant reduction in VZV growth
same,CC50,Vero Cells,> 100000 nM
same,prevention of VZV spread in adult human skin,VZV [4],highly effective
same,inhibition of dihydropyridine dehydrogenase activity,[5],does not inhibit
same,anti-HSV-2 activity (in words),HSV-2; listed as L-BDHU,ineffective; also recorded: inactive
same,CC50,[6],> 100000 nM
same,effect on cellular proliferation,[6],did not affect cellular proliferation
same,levels in mouse organs,[7],reached high levels in mouse organs but not in the brain
same,well tolerated dose,"[7]; mouse, in vivo",up to 150 mg/kg
same,prevention of HSV1 spread in adult human skin,HSV1,highly effective
same,EC50,VZV-BAC-Luc,220 nM
same,anti-HSV-1 activity (in words),HSV-1,good activity
same,EC50,HSV-1; read-out: EC50 against HSV-1,7 nM
"Nc1ccn(C[C@@H](CO)OCP(=O)(O)O)c(=O)n1 [Cidofovir, cidofovir, reference compound]",average fold change on DPI 10,"VZV-ORF57-Luc [2]; i.p., day 10 post-inoculation",2-5 fold
CC(C)C(N)C(=O)OCC1OCC(n2cc(/C=C/Br)c(=O)[nH]c2=O)O1 [L-valyl-L-BHDU],in vivo reduction in VZV growth compared to ACV and VACV,VZV [3],significant reduction in VZV growth
same,CC50,[8],200000 nM
same,EC50,VZV-BAC-Luc,30 nM
CC(C)(C)C(=O)OCOP(=O)(OCOC(=O)C(C)(C)C)OC[C@H]1OC[C@@H](n2cc(/C=C/Br)c(=O)[nH]c2=O)O1 [POM-L-BHDU],in vitro anti-VZV activity (in words),VZV-ORF57-Luc [1],significant anti-VZV activity; also recorded: good antiviral efficacy; also recorded: enhanced antiviral potency in comparison to L-BHDU
same,in vitro anti-VZV activity (in words),VZV-ORF57-Luc [1]; listed as POM (8),better in vitro and in vivo activity in comparison to L-BDHU
same,oral in vivo effectiveness in comparison to cidofovir (ip route),"VZV-ORF57-Luc [2]; oral, FIG. 6B",orally equal effective in comparison to cidofovir
same,in vivo antiviral activity against VZV (in words),VZV-ORF57-Luc [2],most active; also recorded: superior antiviral potency compared to L-BHDU; also recorded: retained its antiviral potency; also recorded: better activity compared to parental molecule
same,in vivo antiviral activity against VZV (in words),VZV-ORF57-Luc [2]; listed as POM (8),better in vitro and in vivo activity in comparison to L-BDHU
same,dose effective in vivo,VZV-ORF57-Luc [2],around 25 mg/kg/day
same,activity compared with cidofovir in repeated in vivo studies,VZV-ORF57-Luc [2],more active than the cidofovir
same,CC50,Vero Cells,> 100000 nM
same,prevention of VZV spread in adult human skin,VZV [4],highly effective
same,anti-HSV-2 activity (in words),HSV-2,active
same,anti-HSV-2 activity (in words),HSV-2; listed as POM-L-BDHU,significant activity
same,EC50,HSV-2; read-out: EC50 against HSV-2,1400 nM
same,CC50,[6],> 100000 nM
same,effect on cellular proliferation,[6],did not affect cellular proliferation
same,tolerability / toxicity in mice,[9],without significant toxicity
same,tolerability / toxicity in mice,[9]; listed as POM-L-BDHU,well-tolerated
same,prevention of HSV1 spread in adult human skin,HSV1,highly effective
same,prevention of HSV1 spread in adult human skin,HSV1; listed as L-BHDU-POM,highly effective; also recorded: more effective than topical acyclovir 0.5%
same,EC50,HSV-1; read-out: EC50 against HSV-1,28 nM
"CCCCCCCCCCCCCCCCOCCCOP(=O)(O)OC[C@H]1OC[C@@H](n2cc(/C=C/Br)c(=O)[nH]c2=O)O1 [HDP-L-BHDU, hexadecyloxypropyl-L-BHDU]",in vitro anti-VZV activity (in words),VZV-ORF57-Luc [1],lower antiviral activity relative to L-BHDU; also recorded: lower in vitro activity than the parental molecule
same,EC50,VZV-ORF57-Luc [1]; [11],900 nM
same,CC50,[6],10000 nM
"CC(C)OC(=O)OCOP(=O)(OCOC(=O)OC(C)C)OC[C@H]1OC[C@@H](n2cc(/C=C/Br)c(=O)[nH]c2=O)O1 [POC-L-BHDU, Bis (POC) prodrug L-BHDU]",in vitro anti-VZV activity (in words),VZV-ORF57-Luc [1],significant anti-VZV activity; also recorded: good antiviral efficacy
same,in vitro anti-VZV activity (in words),VZV-ORF57-Luc [1]; listed as POC (14),better in vitro and in vivo activity in comparison to L-BDHU
same,EC50,VZV-ORF57-Luc [1]; [11],34 nM
same,in vivo antiviral activity against VZV (in words),VZV-ORF57-Luc [2],ineffective
same,in vivo antiviral activity against VZV (in words),VZV-ORF57-Luc [2]; listed as POC (14),better in vitro and in vivo activity in comparison to L-BDHU
same,CC50,Vero Cells,> 100000 nM
same,CC50,[6],> 100000 nM
same,effect on cellular proliferation,[6],did not affect cellular proliferation
same,anti-HSV-1 activity (in words),HSV-1,good activity
same,EC50,HSV-1; read-out: EC50 against HSV-1,26 nM
"Nc1nc2c(ncn2COCCO)c(=O)[nH]1 [acyclovir, reference compound]",EC50,"HSV-1; Human alphaherpesvirus 1, read-out: EC50 against HSV-1",73.6 nM
"CCCCCCCCCCCCCCCCCCOCCOP(=O)(O)OC[C@H]1OC[C@@H](n2cc(/C=C/Br)c(=O)[nH]c2=O)O1 [ODE-L-BHDU, L-BHDU-5′-[(2-octadecyloxyethyl)phosphate]]",in vitro anti-VZV activity (in words),VZV-ORF57-Luc [1],lower antiviral activity relative to L-BHDU
same,in vitro anti-VZV activity (in words),VZV-ORF57-Luc [1]; listed as OED-L-BHDU,lower in vitro activity than the parental molecule
same,EC50,VZV-ORF57-Luc [1]; [11],68 nM
same,in vivo antiviral activity against VZV (in words),VZV-ORF57-Luc [2],better antiviral activity in comparison to L-BHDU; also recorded: most active
same,in vivo antiviral activity against VZV (in words),VZV-ORF57-Luc [2]; listed as OED-L-BHDU,superior antiviral potency compared to L-BHDU; also recorded: significantly enhanced in vivo antiviral activity in comparison to L-BHDU
same,dose effective in vivo,VZV-ORF57-Luc [2],around 25 mg/kg/day
same,activity compared with cidofovir in repeated in vivo studies,VZV-ORF57-Luc [2],more active than the cidofovir
same,concentration at which cellular cytotoxicity was exhibited,Vero Cells,20 µM
same,tolerability / toxicity in mice,[9],without significant toxicity
same,tolerability / toxicity in mice,[9]; listed as OED-L-BHDU,well-tolerated
same,potency against cell-associated VZV-ORF57-Luc compared to CDV or ACV,[10],less potent compared to CDV
same,anti-HSV-1 activity (in words),HSV-1,good activity
same,EC50,HSV-1; read-out: EC50 against HSV-1,757 nM
